# From patent publication US20240384268A1, “Oligonucleotides” (Hudson Institute of Medical Research, priority 2021, published 2024)
# In the oligonucleotide strings, read from the 5' end, every base follows the letter of its sugar. An asterisk marks phosphorothioate; unmarked linkages are phosphodiester. Other units and linkages are bracketed, terminal groups are in braces. A string of capitals states the bases alone. e = 2'-O-(2-methoxyethyl) (MOE); d = 2'-deoxy (DNA); m = 2'-O-methyl
# Target: T1, human TLR9 (Homo sapiens, UniProt Q9NR96)
# T1 construct: HA; host or cells: 293XL-hTLR9-HA (HEK293)
# T1 sequence (Q9NR96 26-1032): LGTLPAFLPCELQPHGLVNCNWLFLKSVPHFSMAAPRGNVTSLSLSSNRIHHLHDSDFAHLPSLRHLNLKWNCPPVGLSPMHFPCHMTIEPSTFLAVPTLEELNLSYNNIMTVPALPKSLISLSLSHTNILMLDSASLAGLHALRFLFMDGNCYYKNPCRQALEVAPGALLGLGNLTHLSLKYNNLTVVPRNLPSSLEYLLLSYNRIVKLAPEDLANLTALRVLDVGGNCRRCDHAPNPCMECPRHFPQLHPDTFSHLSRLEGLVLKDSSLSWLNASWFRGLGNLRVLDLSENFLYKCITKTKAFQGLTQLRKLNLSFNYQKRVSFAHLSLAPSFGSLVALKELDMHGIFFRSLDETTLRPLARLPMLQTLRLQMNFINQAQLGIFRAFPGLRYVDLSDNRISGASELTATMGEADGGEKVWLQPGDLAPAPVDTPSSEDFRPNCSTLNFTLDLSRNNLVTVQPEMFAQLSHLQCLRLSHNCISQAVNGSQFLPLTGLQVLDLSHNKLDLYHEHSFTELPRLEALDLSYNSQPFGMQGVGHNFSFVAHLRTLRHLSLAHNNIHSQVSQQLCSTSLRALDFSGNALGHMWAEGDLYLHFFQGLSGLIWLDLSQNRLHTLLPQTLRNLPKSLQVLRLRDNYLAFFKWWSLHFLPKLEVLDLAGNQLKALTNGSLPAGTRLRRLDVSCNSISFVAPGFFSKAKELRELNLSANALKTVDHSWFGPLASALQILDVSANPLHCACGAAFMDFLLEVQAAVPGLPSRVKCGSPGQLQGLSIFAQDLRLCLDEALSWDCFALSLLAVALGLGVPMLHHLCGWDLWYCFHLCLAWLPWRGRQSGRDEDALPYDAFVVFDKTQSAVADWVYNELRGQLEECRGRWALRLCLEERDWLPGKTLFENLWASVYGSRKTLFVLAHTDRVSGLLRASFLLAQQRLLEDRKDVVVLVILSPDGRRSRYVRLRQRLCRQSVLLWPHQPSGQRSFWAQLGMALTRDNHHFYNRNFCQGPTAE
# Test: HEK-TLR9 NF-κB-luciferase reporter, ODN2006 stimulation
# Type: cell-based
# Conditions: HEK-TLR9; 500 nM 2′OMe or PS oligos; 200 nM ODN2006
# Protocol: In such examples, inhibition of TLR9 activity can be identified by observation of an overall decreased TLR9 response of the cell population, or a lower proportion of cells having TLR9-positive activity as compared to positive control condition in which cells are treated with TLR9 agonist in the absence of the oligonucleotide (or in the presence of an appropriate control inhibitory agent). In one example, HEK cells are transfected with TLR9 and a NF-κB reporter and incubated with an oligonucleotide and then stimulated with a TLR9 agonist. TLR9 activity can then be determined by a luciferase assay. TLR9 activity can also be analysed by measuring cytokine levels (e.g., IFN, IL-6, TNF and IL-12), for example by ELISA.
# (§1) For cGAS stimulations, cells were treated for indicated duration with ASOs, prior to transfection with ISD70 (human cells) or ISD45 (mouse cells) (the ASOs were not washed off prior to ISD transfection unless otherwise indicated). The cGAS ligands ISD45 (Stetson and Medzhitov, 2006) and ISD70 (also known as VACV-70 (Unterholzner et al., 2010)) (Table 1) were resuspended as follows: 5 1d of sense and 5 μl of antisense strands at 10 μg/μl were added to 90 μl PBS under sterile conditions, heated at 75° C. for 30 min, prior to letting cool down at room temperature and aliquoting (stock at 1 μg/1 l). The ISDs were transfected at a concentration of […] at a ratio of 1 μg:1 μl with Lipofectamine 2000 in Opti-MEM (Thermo Fisher Scientific). HEK-TLR3, HEK-TLR7 and […] were treated with indicated concentration of ASOs for 20-50 min, prior to stimulation with poly(I:C) (Invivogen), R848 (Invivogen), Motolimod (MedChemExpress) and the Class B CpG oligonucleotides ODN 2006 (synthesised by IDT and resuspended in RNase-free TE buffer [Table 1]), respectively. The TLR2/1 agonist PAM3CSK4 (Invivogen), the TLR4 agonist lipopolysaccharide (Invivogen), the Class B CpG oligonucleotides ODN 1826 (synthesised by IDT and resuspended in RNase-free TE buffer), the mouse Sting agonist DMXAA (Cayman) and the human STING agonist (compound #3 from (Raanjulu et al., 2018), referred to as GSK herein—kind gift from Cancer Therapeutics CRC, Australia) were used at indicated concentrations. Aspirin (Sigma—A2093) was resuspended in pure medium to 10 mM, filter sterilised and added to the cells at 2 mM final. All ASOs were synthesised by Integrated DNA Technologies (IDT), and resuspended in RNase-free TE buffer, pH 8.0 (Thermo Fisher Scientific). Cell viability was assessed by adding 1× fresh resazurin solution to the wells (10λ solution made up with 7 mg resazurin [Sigma—R7017] dissolved in 3.5 ml PBS, sterile filtered at […]) for 4 h, prior to reading at with a Fluostar OPTIMA (BMG LABTECH) plate-reader (fluorescence: Excitation 535 nm, Emission 590); wells with medium only and 1× resazurin were used as blanks.
# Following transfection, the cells were collected from the 6-wells and aliquoted into 96-wells, just before ASO and overnight TLR stimulation (as above described). Similarly, the LL171 cells expressing and ISRE-Luc reporter were treated overnight. The next day, the cells were lysed in 40 μl (for a 96-well plate) of 1× Glo Lysis buffer (Promega) for 10 min at room temperature. […] was then subjected to firefly luciferase assay using 40 μl of Luciferase Assay Reagent (Promega). Luminescence was quantified with a Fluostar OPTIMA (BMG LABTECH) luminometer.
row,Substance,inhibition of TLR9 sensing of ODN2006 (in words)
1,"mA*mC*mU*mU*mC*G*T*G*G*G*G*T*C*C*T*mU*mU*mU*mC*mA (ACUUCGTGGGGTCCTUUUCA; antisense; sugars from the 5' end m5 d10 m5, all phosphorothioate, methylation of C not given here) [[HPRT]661]",significantly limited inhibition
2,"mC*mA*mA*mC*mA*C*T*T*C*G*T*G*G*G*G*mU*mC*mC*mU*mU (CAACACTTCGTGGGGUCCUU; antisense; sugars from the 5' end m5 d10 m5, all phosphorothioate, methylation of C not given here) [[HPRT]665]",only poorly inhibitory
3,"mC*mA*mC*mU*mU*C*G*T*G*G*G*G*T*C*C*mU*mU*mU*mU*mC (CACUUCGTGGGGTCCUUUUC; antisense; sugars from the 5' end m5 d10 m5, all phosphorothioate, methylation of C not given here) [[HPRT]662]",strongest inhibition of this series of ASOs
4,mC*mA*mU*mU*mA*G*G*T*G*C*A*G*A*A*A*mU*mC*mU*mU*mC (mC*mA*mU*mU*mA*dG*dG*dT*dG*dC*dA*dG*dA*dA*dA*mU*mC*mU*mU*mC) [ASO8],significantly inhibited TLR9 sensing of ODN2006
5,"mC*mC*mA*mA*mC*A*C*T*T*C*G*T*G*G*G*mG*mU*mC*mC*mU (CCAACACTTCGTGGGGUCCU; antisense; sugars from the 5' end m5 d10 m5, all phosphorothioate, methylation of C not given here) [[HPRT]666]",strongly inhibited TLR9
6,mG*mC*mG*mG*mU*A*T*C*C*A*T*A*G*T*C*mU*mC*mC*mA*mU (mG*mC*mG*mG*mU*dA*dT*dC*dC*dA*dT*dA*dG*dT*dC*mU*mC*mC*mA*mU; antisense) [C2-ASO2-A],significantly better inhibitors of TLR9 than their parent ASO
7,mG*mG*mA*mG*mC*T*T*C*G*A*G*G*C*C*C*mC*mA*mG*mG*mC (mG*mG*mA*mG*mC*dT*dT*dC*dG*dA*dG*dG*dC*dC*dC*mC*mA*mG*mG*mC; antisense) [ASO6],significantly inhibited TLR9 sensing of ODN2006
8,mG*mG*mU*mG*mG*T*C*C*A*C*A*A*C*C*C*mC*mU*mU*mU*mC (mG*mG*mU*mG*mG*dT*dC*dC*dA*dC*dA*dA*dC*dC*dC*mC*mU*mU*mU*mC; antisense) [ASO7],significantly inhibited TLR9 sensing of ODN2006
9,"mU*mC*mC*mG*mG*G*T*C*G*T*A*G*T*T*G*mC*mU*mU*mC*mC (UCCGGGTCGTAGTTGCUUCC; antisense; sugars from the 5' end m5 d10 m5, all phosphorothioate, methylation of C not given here) [ASO11Mut2]",conferred significant TLR9 inhibition

# Target: T2, human TLR7 (Homo sapiens, UniProt Q9NYK1)
# T2 construct: HA; host or cells: 293XL-hTLR7-HA (HEK293)
# T2 sequence (Q9NYK1 27-1049): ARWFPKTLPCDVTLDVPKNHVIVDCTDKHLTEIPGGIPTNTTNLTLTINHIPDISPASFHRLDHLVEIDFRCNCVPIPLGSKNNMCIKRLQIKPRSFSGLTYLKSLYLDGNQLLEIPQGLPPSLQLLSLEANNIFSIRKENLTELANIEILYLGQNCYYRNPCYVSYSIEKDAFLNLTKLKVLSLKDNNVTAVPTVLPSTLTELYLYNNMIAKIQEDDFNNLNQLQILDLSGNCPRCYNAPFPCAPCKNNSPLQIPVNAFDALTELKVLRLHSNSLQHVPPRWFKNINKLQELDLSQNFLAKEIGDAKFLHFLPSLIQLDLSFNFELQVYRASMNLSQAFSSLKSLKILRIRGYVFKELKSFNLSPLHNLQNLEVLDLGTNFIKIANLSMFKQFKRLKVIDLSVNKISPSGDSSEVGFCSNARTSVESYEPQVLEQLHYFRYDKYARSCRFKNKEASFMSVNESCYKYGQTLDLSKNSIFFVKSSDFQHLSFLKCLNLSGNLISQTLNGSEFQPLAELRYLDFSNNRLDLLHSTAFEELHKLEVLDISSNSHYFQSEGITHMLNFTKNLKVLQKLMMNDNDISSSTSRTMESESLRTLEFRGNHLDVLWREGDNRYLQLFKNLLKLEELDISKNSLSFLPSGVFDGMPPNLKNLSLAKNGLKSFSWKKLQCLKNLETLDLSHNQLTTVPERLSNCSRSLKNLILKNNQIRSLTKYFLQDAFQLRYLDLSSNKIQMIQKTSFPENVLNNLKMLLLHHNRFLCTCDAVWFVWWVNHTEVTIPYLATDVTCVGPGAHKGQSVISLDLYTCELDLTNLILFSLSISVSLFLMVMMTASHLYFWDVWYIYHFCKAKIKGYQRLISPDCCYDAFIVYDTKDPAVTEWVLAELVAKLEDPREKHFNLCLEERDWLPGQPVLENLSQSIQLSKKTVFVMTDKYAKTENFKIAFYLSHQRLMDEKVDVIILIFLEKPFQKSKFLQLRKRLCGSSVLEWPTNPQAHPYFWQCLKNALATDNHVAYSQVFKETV
# Test: HEK-TLR7 NF-κB-luciferase reporter, R848 stimulation
# Type: cell-based
# Conditions: HEK-TLR7; 400 nM 5-nt 2′OMe oligo 6 h before R848 1 μg/ml
# Protocol: In such examples, inhibition of TLR7 activity can be identified by observation of an overall decreased TLR7 response of the cell population, or a lower proportion of cells having TLR7-positive activity as compared to positive control condition in which cells are treated with TLR7 agonist in the absence of the oligonucleotide (or in the presence of an appropriate control inhibitory agent). In one example, 293XLhTLR7 (referred to as HEK-TLR7) cells are transfected with pNF-κB-Luc4 reporter, incubated with an oligonucleotide, and then stimulated with R848. TLR7 activity can be determined by a luciferase assay, which measures activated NF-κB by luminescence. TLR7 activity can also be analysed by measuring cytokine levels, for example by ELISA. […] TLR7 activity may then be assessed by the gene or protein expression of TLR7-responsive genes, such as Tnfα and Oas3.
# as §1
# Following transfection, the cells were collected from the 6-wells and aliquoted into 96-wells, just before ASO and overnight TLR stimulation (as above described). Similarly, the LL171 cells expressing and ISRE-Luc reporter were treated overnight.
row,Substance,"inhibition of R848 sensing by TLR7, 6 h pre-treatment (in words)"
1,mC*mG*mU*mU*mU [ShortMut1v3],failed to do so
2,mG*mG*mU*mA*mU [ShortMut1],sufficient to inhibit R848 sensing

# Same assay, conditions: HEK-TLR7; 100-500 nM oligo 20-50 min before R848 1 μg/ml
row,Substance,"inhibition of R848 sensing by TLR7, short pre-treatment (in words)"
1,"/52MOErT/*/i2MOErG/*/i2MOErT/*/i2MOErC/*/i2MOErC/*T*T*G*C*A*C*G*T*G*C*/i2MOErC/*/i2MOErT/*/i2MOErA/*/i2MOErA/*/32MOErG/ (TGTCCTTGCACGTGCCTAAG; sugars from the 5' end e5 d10 e5, all phosphorothioate, methylation of C not given here) [F5-Mut]",significantly less inhibitory
2,mG*mG*mU*mA*mU [ShortMut1],no inhibition was observed
